Reference: publication PMC2074382 (British Journal of Cancer, 1996)
Where a name gives a salt, the structure may show the parent alone.

System: solid tumour
Assay: Tumour response (WHO criteria) in phase I study
Assay type: in vivo, human
Source text: British Journal of Cancer (1996) 73, 744-750 O (C? 1996 Stockton Press All rights reserved 0007-0920/96 $12.00 Phase I and pharmacological study of the new topoisomerase I inhibitor G1147211, using a daily x 5 intravenous administration CJH Gerrits', GJ Creemers', JHM Schellens', P Wissel2, AS Th Planting', R Kunka2, K Selinger2, M de Boer-Dennert', Y Marijnen3, M Harteveld' and J Verweijl 'Department of Medical Oncology, Rotterdam Cancer Institute, Rotterdam, The Netherlands; 2Glaxo Wellcome Inc, Department of Clinical Pharmacology, NC, USA; 3Glaxo Wellcome Inc, Department of Clinical Research, Zeist, The Netherlands. Summary Topoisomerase I inhibitors are interesting anti-cancer agents with a novel mechanism of action. […] In subsequent patient cohorts the dose was escalated from 0.3 to 1.5 mg m-2 day-'. Pharmacokinetics analysis was performed on days 1 and 4 of the first course using a validated high- performance liquid chromatographic assay and non-compartmental methods. […] Its further development was stopped because of unpredictable and severe myelosuppression, gastrointestinal toxicity and haemorrhagic cystitis. In the late 1980s two discoveries brought about a renewal of interest in CPT; firstly, topoisomerase I was identified as the single cellular target of CPT (Hsiang et al., 1985; Hsiang and Liu, 1988) and, secondly, an overexpression of topoisomerase I was found in various tumour cell lines but not in normal tissues (Giovanella et al., 1989; Hirabayaski et al., 1992; Potmesil et al., 1988). Topoisomerase I is a nuclear enzyme that resolves topological problems of the torsionally strained (supercoiled) DNA (Slichenmyer et al., 1993). This is achieved by forming a covalent adduct between topoisome- rase I and the DNA, termed the cleavable complex. This catalytic intermediate creates single-strand DNA breaks, allowing the DNA molecule to rotate around the intact DNA strand at the cleavage site, leading to a relaxation of the DNA molecule and in this way replication, transcription and other DNA functions can proceed. These enzyme- bridged breaks are then resealed by topoisomerase I. CPT stabilises the cleavable complexes, thereby preventing resealing of single-strand DNA breaks in the presence of the drug (Covey et al., 1989; D'Arpa and Liu, 1989; Eng et al., 1988). Cytotoxicity is specific to the S-phase of the cell cycle because the double-strand breaks that occur during this phase are more difficult to repair in the presence of the drug (Horwitz and Horwitz, 1973). […]

CC[C@@]1(O)C(=O)OCc2c1cc1n(c2=O)Cc2c-1nc1cc3c(cc1c2CN1CCN(C)CC1)OCCO3 [GI147211, [7 - (methylpiperazinomethylene) - 10,11 - ethylene-dioxy-20(S)] camptothecin dihydrochloride] was tested, and the “stable disease, patients” value (18 evaluable patients) was “ten”, the “response in leiomyosarcoma patient” value (liver metastasis of leiomyosarcoma of the stomach, after two courses) was “minor response” and the “partial response, patients” value (metastatic colorectal cancer resistant to 5-FU/folinic acid, 18 evaluable patients) was “One”. The duration of remission (partial response, colorectal cancer) was 6 weeks.
